The text below walks through data of US8722683B2, “Benzodioxole piperazine compounds” (Hoffmann LA-Roche Inc., priority 2011, dated 2014).

For assay [1], the target named is 5-HT2A receptor (Homo sapiens (Human), UniProt P28223). The assay is described as follows: Radioligand binding ([3H]-ketanserin) to cloned 5-HT2A receptor expressed in HEK-293 EBNA cells. On the procedure: HEK293 EBNA cells were transiently transfected with expression plasmids encoding for the human D2 or D3 or for the human 5-HT2A receptor, respectively. The cells were harvested 48 h post-transfection, washed three times with cold PBS and stored at −80° C. prior to use. The pellet was suspended in cold 50 mM Tris-HCl buffer containing 10 mM EDTA (pH 7.4) and was homogenized with a Polytron (Kinematica AG, Basel, Switzerland) for 20-30 sec at 12.000 rpm. After centrifugation at 48.000×g for 30 min at 4° C., the pellet was resuspended in cold 10 mM Tris-HCl buffer containing 0.1 mM EDTA (pH 7.4), homogenized, and centrifuged as above. This pellet was further resuspended in a smaller volume of ice cold 10 mM Tris-HCl buffer containing 0.1 mM EDTA (pH 7.4) and homogenized with a Polytron for 20-30 sec at 12.000 rpm. The protein content of this homogenate was determined with the Bio-Rad (Bradford) Protein Assay (Biorad Laboratories GmbH, München, Germany) according to the instructions of the manufacturer using gamma globulin as the standard. This homogenate was stored at −80° C. in aliquots and thawed immediately prior to use.
Radioligand Binding Assay
Aliquots of membrane preparations were thawed at RT, resupended in assay buffer (D2, D3: 50 mM Tris-HCl, 120 mM NaCl, 5 mM MgCl2, 1 mM EDTA, 5 mM KCl, 1.5 mM CaCl2, pH=7.4; 5-HT2A: 50 mM Tris-HCl, 10 mM MgCl2, 1 mM EGTA, pH=7.4), homogenized with a Polytron for 20-30 sec at 12.000 rpm and adjusted to a final concentration of approximately 7.5 μg protein/well (D2, D3) and 15 μg protein/well (5-HT2A), respectively.
The binding affinity (Ki) of the compounds was determined using radioligand binding. […] The nonspecific binding was determined with equally composed reaction mixtures in the presence of 10 μM unlabelled spiperone. Per well 45 μl of Microscint 40 (Perkin Elmer, Schwerzenbach, Switzerland) was added, plates for sealed, shaken for 20 min and counted for 3 min on a Topcount Microplate Scintillation Counter (Canberra Packard SA, Zürich, Switzerland) with quenching correction.
The CPM value for each duplicate of a concentration of competing compound was averaged (y1), then the % specific binding was calculated according to the equation (((y1−non-specific)/(total binding−non-specific))×100). Graphs were plotted with the % specific binding using XLfit, a curve fitting program that iteratively plots the data using Levenberg-Marquardt algorithm. The single site competition analysis equation used was y=A+((B−A)/(1+((x/C)D))), where y is the % specific binding, A is the minimum y, B is the maximum y, C is the IC50, x is the log 10 of the concentration of the competing compound and D is the slope of the curve (the Hill Coefficient). […] The affinity constant (Ki) was calculated using the Cheng-Prusoff equation Ki=(IC50/1+([L]/Kd), where [L] is the concentration of radioligand and Kd is the dissociation constant of the radioligand at the receptor as determined by the saturation isotherm.

Assay [2] concerns the target D3 receptor (Homo sapiens (Human), UniProt P35462). The assay is described as follows: Radioligand binding ([3H]-spiperone) to cloned D3 receptor expressed in HEK-293 EBNA cells. Particulars: HEK293 EBNA membranes, 0.5 nM [3H]-spiperone.
Assay [3] deals with D2 receptor (Homo sapiens (Human), UniProt P14416). The assay is described as follows: Radioligand binding ([3H]-spiperone) to cloned D2 receptor expressed in HEK-293 EBNA cells. Particulars: HEK293 EBNA membranes, 0.7 nM [3H]-spiperone.
Setting [4] is: human 5-HT2A receptor, HEK293 EBNA membranes, 1.1 nM [3H]-ketanserin.

As usually defined, the pKi is the negative decadic logarithm of the Ki, by convention in mol/L. Read a low pKi as a high Ki.

pKi: −log10 of the molar value. Like-named read-outs stand apart in the source and are kept apart here.

D3 receptor, sequence (P35462 whole entry): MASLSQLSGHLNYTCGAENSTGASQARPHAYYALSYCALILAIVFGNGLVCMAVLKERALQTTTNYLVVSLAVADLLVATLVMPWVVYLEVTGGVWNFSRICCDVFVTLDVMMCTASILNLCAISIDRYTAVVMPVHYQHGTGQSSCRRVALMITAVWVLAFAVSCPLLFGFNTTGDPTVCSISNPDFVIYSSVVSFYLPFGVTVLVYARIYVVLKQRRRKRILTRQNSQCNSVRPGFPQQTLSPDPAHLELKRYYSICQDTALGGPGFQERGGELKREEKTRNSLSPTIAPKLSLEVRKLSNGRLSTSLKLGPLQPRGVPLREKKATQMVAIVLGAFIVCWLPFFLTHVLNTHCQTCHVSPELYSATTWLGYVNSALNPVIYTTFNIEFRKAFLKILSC
D2 receptor, sequence (P14416 whole entry): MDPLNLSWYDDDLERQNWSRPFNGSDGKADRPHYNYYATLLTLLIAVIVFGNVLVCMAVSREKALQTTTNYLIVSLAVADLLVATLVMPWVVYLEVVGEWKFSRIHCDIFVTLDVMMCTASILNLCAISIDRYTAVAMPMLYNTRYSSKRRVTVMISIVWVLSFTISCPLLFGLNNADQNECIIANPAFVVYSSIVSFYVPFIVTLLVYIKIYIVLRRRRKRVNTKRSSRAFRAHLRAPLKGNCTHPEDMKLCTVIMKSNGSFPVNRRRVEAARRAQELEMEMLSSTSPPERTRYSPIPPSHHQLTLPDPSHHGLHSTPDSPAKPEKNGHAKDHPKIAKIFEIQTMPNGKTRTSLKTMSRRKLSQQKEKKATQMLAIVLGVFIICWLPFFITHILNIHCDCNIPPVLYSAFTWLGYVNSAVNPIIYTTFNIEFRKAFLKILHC
5-HT2A receptor, sequence (P28223 whole entry): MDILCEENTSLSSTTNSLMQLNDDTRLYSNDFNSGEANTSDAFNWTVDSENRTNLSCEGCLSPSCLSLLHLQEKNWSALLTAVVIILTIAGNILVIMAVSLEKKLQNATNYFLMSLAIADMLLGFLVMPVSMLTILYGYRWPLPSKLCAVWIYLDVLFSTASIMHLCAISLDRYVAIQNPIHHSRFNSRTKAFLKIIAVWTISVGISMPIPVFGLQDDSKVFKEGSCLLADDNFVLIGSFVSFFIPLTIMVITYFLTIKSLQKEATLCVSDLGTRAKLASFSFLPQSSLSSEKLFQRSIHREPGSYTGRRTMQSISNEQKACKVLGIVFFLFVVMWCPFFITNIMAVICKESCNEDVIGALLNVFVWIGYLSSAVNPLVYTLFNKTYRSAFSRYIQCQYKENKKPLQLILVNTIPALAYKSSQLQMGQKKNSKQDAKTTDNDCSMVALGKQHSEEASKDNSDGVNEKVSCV

Consider `CC1(C(=O)N[C@H]2CC[C@H](CCN3CCN(c4cccc5c4OCO5)CC3)CC2)COC1` [Example 58, 3-Methyl-oxetane-3-carboxylic acid-trans-N-{4-[2-(4-benzo[1,3]dioxol-4-yl-piperazin-1-yl)-ethyl]-cyclohexyl}-amide], for which the pKi in assay [1] is 7.81; in assay [2], 8.17; in assay [3], 7.09.

Turning to `O=C(C[C@H]1CCCOC1)N[C@H]1CC[C@H](CCN2CCN(c3cccc4c3OCO4)CC2)CC1` (single isomer, unassigned) [Example 33, Trans-N-{4-[2-(4-Benzo[1,3]dioxol-4-yl-piperazin-1-yl)-ethyl]-cyclohexyl}-2-(R) or (S)-tetrahydro-pyran-3-yl-acetamide], the pKi in assay [1] (setting [4]) is 7.61; in assay [3], 6.74.

As for `CN1CCN(CC(=O)N[C@H]2CC[C@H](CCN3CCN(c4cccc5c4OCO5)CC3)CC2)CC1` [Example 61, Trans-N-{4-[2-(4-Benzo[1,3]dioxol-4-yl-piperazin-1-yl)-ethyl]-cyclohexyl}-2-(4-methyl-piperazin-1-yl)-acetamide], the pKi was 7.80 in assay [1], 8.33 in assay [2] and 7.42 in assay [3].

For `O=C(N[C@H]1CC[C@H](CCN2CCN(c3cccc4c3OCO4)CC2)CC1)C1CCS(=O)(=O)C1` (stereo partly drawn) [Example 52, 1,1-Dioxo-tetrahydro-1,6-thiophene-3-carboxylic acid-trans-N-{4-[2-(4-benzo[1,3]dioxol-4-yl-piperazin-1-yl)-ethyl]-cyclohexyl}-amide], the pKi in assay [1] (setting [4]) is 8.37; in assay [2], 8.45; in assay [3] it was 7.23.

Regarding `O=C(N[C@H]1CC[C@H](CCN2CCN(c3cccc4c3OCO4)CC2)CC1)C1CC1(F)F` (stereo partly drawn) [Example 20, Trans-2,2-Difluoro-cyclopropanecarboxylic acid {4-[2-(4-benzo[1,3]dioxol-4-yl-piperazin-1-yl)-ethyl]-cyclohexyl}-amide], the pKi in assay [1] was 7.57; in assay [2] it was 8.59; in assay [3] it was 6.84.

Consider `O=C(N[C@H]1CC[C@H](CCN2CCN(c3cccc4c3OCO4)CC2)CC1)C1CCOCC1` [Example 43, Tetrahydro-pyran-4-carboxylic acid-trans-N-{4-[2-(4-benzo[1,3]dioxol-4-yl-piperazin-1-yl)-ethyl]-cyclohexyl}-amide], for which the pKi in assay [1] was 8.11; in assay [2], 8.35; in assay [3] it was 6.66.

Turning to `CN1CCC(C(=O)N[C@H]2CC[C@H](CCN3CCN(c4cccc5c4OCO5)CC3)CC2)CC1` [Example 57, 1-Methyl-piperidine-4-carboxylic acid-trans-N-{4-[2-(4-benzo[1,3]dioxol-4-yl-piperazin-1-yl)-ethyl]-cyclohexyl}-amide], the pKi in assay [1] was 7.82; in assay [2], 7.60; in assay [3], 7.20.

As to `CC(C)[C@H](O)C(=O)N[C@H]1CC[C@H](CCN2CCN(c3cccc4c3OCO4)CC2)CC1` [Example 40, (S)-Trans-N-{4-[2-(4-Benzo[1,3]dioxol-4-yl-piperazin-1-yl)-ethyl]-cyclohexyl}-2-hydroxy-3-methyl-butyramide], the results for the pKi in assay [1], in assay [2] and in assay [3] were 7.65, 7.83 and 7.13, respectively.

Consider `COC(C)CC(=O)N[C@H]1CC[C@H](CCN2CCN(c3cccc4c3OCO4)CC2)CC1` (stereo partly drawn) [Example 21, Trans-N-{4-[2-(4-Benzo[1,3]dioxol-4-yl-piperazin-1-yl)-ethyl]-cyclohexyl}-3-methoxy-butyramide], for which the pKi in assay [1] is 7.61; in assay [2], 8.56; in assay [3], 6.74.

Take `O=C(CC1COCCO1)N[C@H]1CC[C@H](CCN2CCN(c3cccc4c3OCO4)CC2)CC1` (stereo partly drawn) [Example 3, Trans-N-{4-[2-(4-Benzo[1,3]dioxol-4-yl-piperazin-1-yl)-ethyl]-cyclohexyl}-2-[1,4]dioxan-2-yl-acetamide]: the pKi was 7.93 in assay [1] and 6.70 in assay [3].
